This is an account of results in patent US10017481B2, “Conformationally constrained, fully synthetic macrocyclic compounds” (POLYPHOR AG, priority 2012, dated 2018).

For assay [1], the target named is T1, Human recombinant cathepsin S (Homo sapiens, UniProt P25774).
T1 construct: host or cells: murine myeloma NS0 cells
The note with it: reference compound of the CatS assay; 0.1 μg/ml enzyme, acetate buffer pH 4.5, 25° C.; cited from earlier work.

The target in assay [2] is T2, Bombesin receptor subtype 3 (BB3 receptor) (Homo sapiens, UniProt P32247).
T2 construct: expressed in transfected cells; host or cells: Ca2+ optimized hematopoietic cell lines (rat)
T2 sequence (P32247 1-399): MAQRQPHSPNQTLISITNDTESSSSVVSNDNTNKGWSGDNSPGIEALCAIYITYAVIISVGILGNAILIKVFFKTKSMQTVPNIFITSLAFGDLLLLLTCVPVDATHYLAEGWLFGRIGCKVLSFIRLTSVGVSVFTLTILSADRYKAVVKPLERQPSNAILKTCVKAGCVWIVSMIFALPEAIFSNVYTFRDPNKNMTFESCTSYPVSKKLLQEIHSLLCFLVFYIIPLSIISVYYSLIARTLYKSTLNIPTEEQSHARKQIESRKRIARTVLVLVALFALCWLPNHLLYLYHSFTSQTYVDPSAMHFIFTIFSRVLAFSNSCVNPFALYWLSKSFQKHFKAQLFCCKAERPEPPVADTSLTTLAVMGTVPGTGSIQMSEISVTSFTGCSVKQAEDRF
The experiment in a line: Ca2+ flux (FLIPR) assay, BB3 receptor, agonist/antagonist mode. Particulars: agonist mode. In kind it is cell-based. As for the experimental part: Biological and Pharmacological Methods 1. Ca^2+ Flux Assays for the GPCRs Oxytocin Receptor (OT Receptor), Thyrotropin-Releasing Hormone Receptor (TRH Receptor) and Bombesin Receptor Subtype 3 (BB3 Receptor)
Assays were performed on a FLIPR^TETRA fluorometric imaging plate reader (Molecular Devices) with ScreenWorks Version 2 (Molecular Devices) as device operating and data analysis software.
Dose dependent agonist and antagonist activities were determined. Percentage activation and percentage inhibition values were determined.
Percentage activation was determined upon initial addition of the sample compounds followed by 10 minutes' incubation at 25° C. Following compound incubation, reference agonists were added at EC80 to determine percentage inhibition.
Reference agonists were purchased from reputable commercial vendors and prepared according to each ligand's specifications. All handling of ligands were done to ensure proper control throughout the experiments.
Example compounds were weighed on a Microbalance (Mettler MX5) and dissolved in 100% DMSO to a final concentration of 2.5 mM and subsequently diluted into the assay buffer.
The assay buffer was a supplemented HBSS (Hank's Balanced Salt Solution). HBSS was supplemented with 20 mM HEPES (4-(2-hydroxyethyl)-piperazin-1-ethansulfonic acid) and 2.5 mM Probenecid (Sigma P8761).
GPCR assays were performed using Ca^2+ optimized hematopoietic cell lines (rat) with cultures never exceeding 90% confluency. Cells were harvested and seeded (from cultures at less than 90% confluency) at 50000 cells/well for a 96-well plate (12500 cells/well for 384). After seeding, the assay plates were incubated for 45 minutes at room temperature. After room temperature incubation, the assay plates were incubated at 37° C. 5% CO2 for 24 hours prior to assaying.
All GPCR assays were performed using Fluo-8 Ca^2+ dye.
Ca^2+ dye was prepared at 1× dye concentration in GPCR assay buffer. After 24 hours of incubation, cells were washed with GPCR assay buffer, and then Ca^2+-dye (100 μL/well) was added.
The plates were incubated for 90 minutes at 30° C. 5% CO2 prior to FLIPR assay.
Compound plates were prepared to add 50 μL/well during the agonist assay mode. During the FLIPR assay, 50 μL/well from the compound plate was diluted 3-fold into the existing 100 μL/well from the dye loading step. Therefore all compounds were prepared as 3× the final concentration desired in the assay.
After completion of the first single addition assay run, assay plate was removed from the FLIPR Tetra and placed at 25° C. for 7 minutes before antagonist assay.
Using the EC80 values determined during the agonist assay, all pre-incubated sample compound and reference antagonist (if applicable) wells were stimulated at the EC80 of the reference agonist. As reference ligands for these assays their obvious natural ligands oxytocin (OT), thyrotropin-releasing hormone (TRH) and bombesin (6-14) [BN(6-14)] were used.
After the addition of the reference agonist fluorescence was monitored for 180 sec using FLIPR Tetra.
From the FLIPR data, with negative control correction enabled, the maximum statistic for each well was exported and percentage activation relative to Emax control was calculated.
(Calcium assays in cells follow changes in intracellular calcium, usually with a dye or a luminescent sensor.)

A word on the IC50: it is the concentration at which inhibition is half-maximal. Usually EC50 stands for the concentration that produces a half-maximal response.

T1 sequence (P25774 115-331): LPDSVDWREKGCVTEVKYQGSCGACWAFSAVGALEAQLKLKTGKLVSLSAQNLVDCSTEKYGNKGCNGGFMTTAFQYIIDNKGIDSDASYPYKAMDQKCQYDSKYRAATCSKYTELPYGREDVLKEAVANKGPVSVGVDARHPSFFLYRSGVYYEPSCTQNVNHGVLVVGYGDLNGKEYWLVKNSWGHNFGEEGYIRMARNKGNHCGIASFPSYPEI

As to `CC(C)C[C@H](NC(=O)[C@H]1O[C@@H]1C(=O)O)C(=O)NCCCCN=C(N)N` [E-64], in assay [1], the IC50 was 1.4 nM.
For `CN1CC[C@H](NC(=O)Cc2ccc3ccccc3c2)C(=O)N2C[C@@H](O)C[C@H]2COc2ccsc2-c2cc(n(C)n2)C1=O` [Ex. 265, N-[(9S,11S,15S)-11-hydroxy-18,21-dimethyl-14,19-dioxo-7-oxa-3-thia-13,18,21,22-tetraazatetracyclo[18.2.1.0^2,6.0^9,13]tricosa-1(22),2(6),4,20(23)-tetraen-15-yl]-2-(2-naphthyl)acetamide], in assay [2], the response was half-maximal at 630 nM (EC50) and the “Agonist activity % activation at 12.5 μM” value was 84%.
As to `CN1CC[C@H](NC(=O)Cc2cccc3ccccc23)C(=O)N2C[C@@H](O)C[C@H]2COc2ccsc2-c2cc(n(C)n2)C1=O` [Ex. 267, N-[(9S,11S,15S)-11-hydroxy-18,21-dimethyl-14,19-dioxo-7-oxa-3-thia-13,18,21,22-tetraazatetracyclo[18.2.1.0^2,6.0^9,13]tricosa-1(22),2(6),4,20(23)-tetraen-15-yl]-2-(1-naphthyl)acetamide], in assay [2], the “Agonist activity % activation at 12.5 μM” value was 61%.
Take `CO[C@H]1C[C@H]2COc3ccsc3-c3cc(n(C)n3)C(=O)N(C)CC[C@H](NC(=O)Cc3ccc4ccccc4c3)C(=O)N2C1` [Ex. 275, N-[(9S,11S,15S)-11-methoxy-18,21-dimethyl-14,19-dioxo-7-oxa-3-thia-13,18,21,22-tetraazatetracyclo[18.2.1.0^2,6.0^9,13]tricosa-1(22),2(6),4,20(23)-tetraen-15-yl]-2-(2-naphthyl)acetamide]: in assay [2], the EC50 was 780 nM and the “Agonist activity % activation at 12.5 μM” value is 60%.
As for `CN1CC[C@H](NCCc2ccc3ccccc3c2)C(=O)N2C[C@@H](O)C[C@H]2COc2ccsc2-c2cc(n(C)n2)C1=O` [Ex. 282, (9S,11S,15S)-11-hydroxy-18,21-dimethyl-15-{[2-(2-naphthyl)ethyl]amino}-7-oxa-3-thia-13,18,21,22-tetraazatetracyclo[18.2.1.0^2,6.0^9,13]tricosa-1(22),2(6),4,20(23)-tetraene-14,19-dione], in assay [2], the “Agonist activity % activation at 12.5 μM” value came to 39%.
